# Columns and labels:
# U87MG glioma cells [1] = assay: DNA laddering in glioma cells; assay type: cell-based, human; conditions: J1 25 μM
# [2] = system: JAZ, p53, and Bax protein levels; assay: Western blot of JAZ, p53 and Bax; assay type: cell-based; conditions: J1 25 μM
# Description: (§1) Whole cell protein extracts were prepared using cold lysis buffer consisting of: M-Per mammalian protein extraction reagent (Pierce Biochemical, Rockford, Ill.), 30 mM sodium fluoride, 1 mM sodium vanadate, and protease inhibitor cocktail tablets (Boehringer Mannheim). Samples were incubated on ice for 10 minutes and supernatants were recovered by centrifuging at 14,000 rpm at 4° C. for 20 minutes. Protein concentrations were determined by the BCA method (Pierce Biochemical). Proteins were separated on SDS-PAGE and transferred to nitrocellulose membrane (Osmonics, Minnetonka, Minn.). Blocking reagent is 5% nonfat dry milk in PBS (pH 7.4). Washing buffer is PBS (pH 7.4) with 0.1% Tween 20. Primary antibodies (p53, ATM, CHK1, CHK2) are commercially available. JAZ primary antibodies are described in Yang et al., Blood 108:4136-4145, 2006. The respective HRP-conjugated secondary antibodies were purchased from Boehringer Mannheim. Signals are visualized by using ECL chemiluminescence (Amersham, Indianapolis, Ind.) or Supersignal chemiluminescence (Pierce Biochemical) and Kodak X-OMAT films. Data acquired as integrated densitometric values are transformed to percentages of the values obtained from control samples visualized on the same blot.
# colon cancer cells = assay: Cytotoxicity to colon cancer cells (FIG. 13); assay type: cell-based
# [3] = system: LNCAP prostate carcinoma cells; assay: Cytotoxicity on LNCAP; assay type: cell-based
# [4] = system: DU145 prostate carcinoma cells; assay: Cytotoxicity on DU145; assay type: cell-based
# [5] = system: primary cultured hepatocytes; assay: Cytotoxicity on primary cultured hepatocytes; assay type: cell-based; conditions: 24 hours after drug treatment
# HepG2 cells = assay: Cytotoxicity on HepG2; assay type: cell-based, Human; conditions: dose and time-dependent
# glioma cell viability = assay: GI50 comparison of J1 with FDA approved chemotherapy drugs (FIG. 12); assay type: cell-based; conditions: read-out: GI50 (concentration of drug that causes 50% growth inhibition)
# lung cancer cells = assay: Cytotoxicity to lung cancer cells (FIG. 13); assay type: cell-based
# T98G glioma cells = assay: Cell viability assay (trypan blue exclusion), T98G; assay type: cell-based, human; conditions: mutant-type p53-expressing T98G cells after J1 treatment
# Description: (§2) T98G, U87MG, U118MG, A172, LN18, DBTRG-05MG, LN229, M059J, WT4 human glioma cell lines were purchased from American Type Culture Collection (Rockville, Md.). Cell culture was conducted according to the ATCC's recommendations, available at www.atcc.org. Normal human astrocytes (NHA) were purchased from Lonza Bioscience (Switzerland). Cell cultures were grown according to the vendor's recommendations for each cell line. GL261 mouse glioma cell line was obtained from NCI (Frederick, Md.) and was grown in RPMI (Gibco BRL, Grand Island, N.Y.) containing 10% FBS, 1% Penicillin-Streptomycin, and 4 mM L-glutamine at 37° C. with 5% CO2.
# (§3) J1 and its derivatives were provided by NCI developmental therapeutic program repository or purchased from Sigma-Aldrich Inc. Temozolomide (TMZ) was obtained from Schering-Plough (Kenilworth, N.J.). Both J1 and TMZ were dissolved in DMSO and stock solution of 100 mM were made.
# (§4) JAZ siRNA and control siRNA were purchased from Invitrogen. […]
# (§5) Cell viability was measured by first seeding tumor cells in 24-well dishes at a density of 10,000 cells per well. […] Forty-eight hours after transduction, cells were collected by trypsinization followed by the trypan blue exclusion method (Yang et al., J Biol Chem 1999; 274:27399-406) and counted manually using a hemacytometer. […]
# [6] = system: ATF-4 protein levels in U118MG cell line; assay: Western blot of ATF-4, U118MG; assay type: cell-based, human; conditions: U118MG, 24, 48, and 72 hours after J1 (10 and 25 μM)
# Description: as §1
# U87MG glioma cells [7] = assay: Cell viability assay (trypan blue exclusion), U87MG; assay type: cell-based, human; set-up: viable U87 cells after JAZ siRNA plus J1: dose or concentration left out as unconfirmed
# Description: as §2, §3
# JAZ siRNA and control siRNA were purchased from Invitrogen. Cell transfection was performed by using METAFECTENE PRO (Biontex Laboratories GmbH, Germany) following the manufacturer's instructions. Briefly, 40 pmoles of JAZ (or control) siRNA was added into 30 μl serum-free medium then mixed with METAFECTENE PRO solution and incubated for 15-20 minutes at room temperature. The final siRNA-lipid complex solution was added into one 24-well-plate well. The complex-containing medium was replaced with serum-containing medium at 3 hours after the transfection to reduce the toxicity.
# Cell viability was measured by first seeding tumor cells in 24-well dishes at a density of 10,000 cells per well. Two days later, cells were transduced with JAZ (or control) siRNA. Forty-eight hours after transduction, cells were collected by trypsinization followed by the trypan blue exclusion method (Yang et al., J Biol Chem 1999; 274:27399-406) and counted manually using a hemacytometer. This experiment was repeated six times for each cell line and each time in triplicate.
# U118 glioma cells = assay: Quantitative proteomics (iTRAQ 4plex), U118; assay type: cell-based, human
# Description: (§6) FIGS. 14A and 14B are tables showing quantitative proteomic analysis of proteome changes 48 hours after J1 (65 μM, NCI) treatment on U87 (FIG. 14A) and U118 (FIG. 14B) glioma cells. To further explore the molecular mechanism of J1's cytotoxic effects on glioma cells, a quantitative proteomics analysis (iTRAQ 4plex) was conducted after J1 treatment. There were four groups: untreated U87 and U118 glioma cells and J1 treated U87 and U118 glioma cells at 48 hours. Each group was in triplicate. […] HSPA5 activation is a marker for Unfolded Protein Response (UPR), a pathway that can contribute to cell death or cell survival.
# U87 glioma cells = assay: Quantitative proteomics (iTRAQ 4plex), U87; assay type: cell-based, human
# Description: as §6
# [8] = system: ATF-4 protein levels in U87 glioma cells; assay: Western blot of ATF-4, U87; assay type: cell-based, human; conditions: U87, 24, 48, and 72 hours after J1 (10 and 25 μM)
# Description: as §1
# leukemia cells = assay: Cytotoxicity to leukemia cells (FIG. 13); assay type: cell-based
# [9] = system: ATF-4 and CHOP in U87 cells; assay: Immunofluorescence of ATF-4 and CHOP, U87; assay type: cell-based, human
# WT4 glioma cells = assay: Cell viability assay (trypan blue exclusion), WT4; assay type: cell-based, human; conditions: p53-expressing and p53-non-expressing WT4 cells, J1 25 μM
# Description: as §2, §3, §4, §5
# GL261 glioma cells = assay: Cytotoxicity on GL261; assay type: cell-based, mouse; conditions: increasing concentrations
# Description: as §2
# glioma = assay: In vitro glioma cytotoxic effects of J1 analogues (FIG. 18); assay type: cell-based
smiles,measurement,setting,value
"O=C(Nc1ccc(Cl)c(Cl)c1)Nc1ccccc1O [J1, N′-(2-hydroxy-phenyl)-N-(3,4-dichlorophenyl)Urea]",DNA laddering formation,U87MG glioma cells [1],increased DNA laddering formation
same,"JAZ, p53, and Bax protein levels",[2],did not alter
same,cytotoxicity to colon cancer cells,colon cancer cells,cytotoxic
same,cytotoxic effects on LNCAP cells,[3],strong dose and time-dependent cytotoxic effects
same,cytotoxic effects on DU145 cells,[4],strong dose and time-dependent cytotoxic effects
same,cytotoxic effects on primary cultured hepatocytes,[5],minimal cytotoxic effects
same,cytotoxic effects on HepG2 cells,HepG2 cells,significant cytotoxic effects
same,GI50,glioma cell viability,10 µM
same,cytotoxicity to lung cancer cells,lung cancer cells,cytotoxic
same,"viable tumor cells, time and dose course",T98G glioma cells,time- and dose-dependent significant reduction of viable tumor cells
same,ATF-4 protein levels,[6],time- and dose dependent increase
same,viable U87 cells after JAZ siRNA plus J1,"U87MG glioma cells [7]; 24 hours after JAZ siRNA transfection, J1 for additional 24 hours",did not lead to further reduction of viable U87 cells
same,viable U87 cells,U87MG glioma cells [7]; 48 hours after J1 treatment (10 μM),reduction of viable U87 cells
same,"viable tumor cells, time and dose course",U87MG glioma cells [7]; U87MG cells after J1 treatment,time- and dose-dependent significant reduction of viable tumor cells
same,"HSPA5 (GRP78, Bip) protein levels","U118 glioma cells; U118, 48 hours after J1 (65 μM)",consistently and significantly increased
same,proteins up-regulated by J1 treatment,U118 glioma cells; U118 glioma cells,"HSPA5, PBEF1, HSPA1B, VIM, LMNA and HIST2H3PS2"
same,"HSPA5 (GRP78, Bip) protein levels","U87 glioma cells; U87, 48 hours after J1 (65 μM)",consistently and significantly increased
same,PLOD2 protein level,U87 glioma cells; U87 glioma cells,significantly down-regulated
same,proteins up-regulated by J1 treatment,U87 glioma cells; U87 glioma cells,"PBEF1, HSPA5, ANXA1, TPI1, ANXA5, HSPA9, TGM2, NPM1, and RPLP2"
same,ATF-4 protein levels,[8],time- and dose dependent increase
same,cytotoxicity to leukemia cells,leukemia cells,cytotoxic
same,nuclear ATF-4 staining,[9]; 12 hours after J1 (25 μM),significantly increased
same,CHOP staining,[9]; 24 hours after J1 (25 μM),significantly increased
same,viable tumor cells,WT4 glioma cells,time-dependent significant reduction of viable tumor cells
same,cytotoxic effects on GL261 glioma cells,GL261 glioma cells,progressively greater cytotoxic effects
"O=C(Nc1ccc(Cl)cc1)Nc1ccc(Cl)c(Cl)c1 [J1-h, 3-(4-chloro-phenyl)-1-(3,4-dichlorophenyl) Urea]",cytotoxic effects on LNCAP cells,[3],strong dose and time-dependent cytotoxic effects
same,cytotoxic effects on DU145 cells,[4],strong dose and time-dependent cytotoxic effects
same,cytotoxic effects on primary cultured hepatocytes,[5],minimal cytotoxic effects
same,cytotoxic effects on HepG2 cells,HepG2 cells,significant cytotoxic effects
same,in vitro glioma cytotoxic effects,glioma,glioma cytotoxic effects
same,cytotoxic effects on GL261 glioma cells,GL261 glioma cells,progressively greater cytotoxic effects
"Cn1nnc2c(C(N)=O)ncn2c1=O [Temozolomide, reference compound]",GI50,glioma cell viability,100 µM

# From US20110110958A1, “COMPOSITIONS AND METHODS FOR THE TREATMENT OF NEOPLASIA” (UNIVERSITY OF FLORIDA RESEARCH FOUNDATION, priority 2007, published 2011)
